# pEC50, pKi: −log10 of the molar value.
# Assays:
# human NK-1 receptors = target: T1, human NK-1 receptors (Homo sapiens, UniProt P25103); assay: Binding power of the test substances to NK-1 receptors in vitro ([3H]-Substance P displacement, CHO cell membranes); conditions: negative common logarithm of Ki calculated from IC50
# T1 construct: expressed in transfected cells; host or cells: CHO cells (membrane preparation)
# Description: The affinity of the test substances to human NK-1 receptors was measured in vitro. The inhibition of the binding of the physiological neurokinin (Substance P) to neurokinin-1 receptors was determined.
# The receptor binding studies were performed with [^3H]-Substance P as ligand. For the binding test, different samples of a membrane preparation of CHO cells (=egg cells of the Chinese hamster, […]), which express the human NK-1 receptor (“Accession Number” of the associated nucleic acid sequence=M74290; “Accession Number” of the associated protein sequence=P25103; cf. Takeda, Y.; Chou, K. B., Takeda, J.; Sachais, B. S. and Krause, J. E; Biochemical and Biophysical Research Communications, 179(3) (1991) 1232-1240), were incubated with a solution of the marked ligand, with the incubation mixtures containing no test substance or additions of different concentrations of test substance. Then, separation of bound and free ligands was performed in each of the samples with the aid of glass-fibre filtration. The fraction remaining in the filter was washed several times with buffer solution and then the radioactivity of the fraction remaining in the filter was measured using a beta scintillation counter.
# For the compounds of Examples 1 and 8 to 65, the affinity to human NK-1 receptors was determined in each case by a single measurement of the test substances in a concentration of 10^−7 mol/l.
# For the compounds of Examples 2 and 4-6, that concentration which effects half maximum displacement of the bound ligand was determined as IC50 of the respective test substance. From this, the corresponding inhibition constant (Ki value) of the test substance was calculated, and was stated as the negative common logarithm of the Ki value (=pKi value). The pKi value is a measurement of the affinity of the test substances to human NK-1 receptors.
# NK-1 receptors = target: T2, NK-1 receptors (Cavia porcellus, UniProt P30547); assay: Functional NK-1 antagonism on isolated guinea pig aorta rings (inhibition of Substance P-induced relaxation); format: cell-based; conditions: half maximum inhibition of relaxation of tone caused by 0.01 μmol Substance P; phenylephrine-tonicised guinea pig aorta
# T2 construct: isolated ring preparations, kept in an oxygenated nutrient solution, of the aortas of Pirbright-White guinea pigs; from tissue; host or cells: isolated aorta rings of Pirbright-White guinea pigs
# Description: The action antagonistic to NK-1 receptors of the test substances was measured in vitro on isolated ring preparations, kept in an oxygenated nutrient solution, of the aortas of Pirbright-White guinea pigs. The inhibition by the test substances of the relaxation of tone of the aorta preparations, caused after stimulation with the NK-1 agonist Substance P, was determined.
# In order to measure the contraction of the vessel muscles, the preparations were fixed to a hook, joined by a thread to a force measuring apparatus and the contractions were recorded in each case on a plotter. The aorta preparations were tonicised with phenylephrine. Then before and after the administration of the test substance the NK-1 receptors of the preparations were stimulated with 0.01 μmol Substance P, which caused relaxation of the tone. The relaxations before and after the administration of the test substance were quantified in percent. The effective concentration of the half maximum inhibition of the relaxation of the tone (=EC50) was calculated. The negative common logarithm of the EC50 value (=pEC50) was given as characteristic variable. The pEC50 value is a measurement of the functional effectiveness of the test substances on NK-1 receptors.
# Solubility in water = format: physicochemical
# basal blood pressure = assay: Vasodepressive effects based on calcium-antagonistic properties (action on basal blood pressure); format: in vivo; conditions: guinea pig, i.v. doses of up to 0.1 μmol/kg and p.o. doses of up to 3.2 μmol/kg
# Description: The arterial catheter served to measure the blood pressure. The administration of Substance P and, in the case of i.v. administration, also the administration of the test substance, was effected by means of the venous access. After a 20-minute equilibration phase, 50 pmol/animal of Substance P were administered (bolus, i.v.) as a test stimulus. One minute after administration of the test stimulus, in each case the maximum drop in blood pressure induced thereby was determined as a control for the later stimulation of the NK-1 receptors by the test substance. Then the test substance was administered. For the i.v. investigation, the test substance was administered in metered doses of 0.01 to 0.1 μmol/kg. For the p.o. investigation, the test substance was administered in metered doses of 0.1 to 3.2 μmol/kg. Tylose or Tylose/ethanol was used as the vehicle for the p.o. investigations. Then, in each case the extent of the vasodepression inhibited by the test substance was measured, starting 1 minute after administration of test substance, up to 90 minutes after administration of test substance, at intervals of 15 minutes each time. The doses at which, dependent on the time, just 50% inhibition of the Substance P-induced vasodepression occurs due to the test substance were determined from these measured values as ED50 values. […]
# gerbil foot tapping = assay: Gerbil foot tapping test for CNS-permeable NK-1 antagonists; format: in vivo; conditions: doses of up to 30 mg/kg p.o.
# T2 sequence (P30547 whole entry): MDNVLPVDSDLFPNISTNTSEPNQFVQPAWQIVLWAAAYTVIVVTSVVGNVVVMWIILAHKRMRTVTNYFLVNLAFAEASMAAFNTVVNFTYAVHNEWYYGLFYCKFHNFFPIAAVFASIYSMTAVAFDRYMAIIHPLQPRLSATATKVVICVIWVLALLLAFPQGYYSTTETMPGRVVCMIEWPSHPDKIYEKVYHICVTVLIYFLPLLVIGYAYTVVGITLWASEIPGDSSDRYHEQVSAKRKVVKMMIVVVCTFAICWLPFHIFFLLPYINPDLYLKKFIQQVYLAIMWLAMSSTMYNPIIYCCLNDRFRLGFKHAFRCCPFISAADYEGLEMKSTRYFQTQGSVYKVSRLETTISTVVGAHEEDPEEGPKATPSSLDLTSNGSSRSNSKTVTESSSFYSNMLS
# T1 sequence (P25103 whole entry): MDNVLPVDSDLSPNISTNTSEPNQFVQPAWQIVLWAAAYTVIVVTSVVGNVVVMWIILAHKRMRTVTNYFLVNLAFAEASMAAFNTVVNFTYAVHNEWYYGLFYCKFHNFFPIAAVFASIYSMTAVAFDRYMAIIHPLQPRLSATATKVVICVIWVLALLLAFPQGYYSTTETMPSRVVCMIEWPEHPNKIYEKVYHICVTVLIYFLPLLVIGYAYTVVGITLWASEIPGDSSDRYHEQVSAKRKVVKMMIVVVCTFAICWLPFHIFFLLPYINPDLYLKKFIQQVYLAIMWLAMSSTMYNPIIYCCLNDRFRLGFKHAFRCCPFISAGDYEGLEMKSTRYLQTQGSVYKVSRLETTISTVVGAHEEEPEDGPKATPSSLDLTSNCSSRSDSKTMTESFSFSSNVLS
Compound,pKi (human NK-1 receptors),pEC50 (NK-1 receptors),solubility in water (Solubility in water),"vasodepression (action on basal blood pressure, calcium-antagonistic side-effect) (basal blood pressure)",typical effects of CNS-permeable NK-1 antagonists (gerbil foot tapping)
"CN(C)Cc1n[nH]nc1CN1CCN(C(=O)c2cc(C(F)(F)F)cc(C(F)(F)F)c2)[C@H](Cc2c[nH]c3ccccc23)C1 [Example 4, (2R)-1-[3,5-Bis(trifluoromethyl)benzoyl]-2-(1H-indol-3-ylmethyl)-4-{[5-(dimethylaminomethyl)-2H-1,2,3-triazol-4-yl]methyl}piperazine]",8.30,8.60,,,
Cn1cc(C[C@@H]2CN(Cc3n[nH]nc3CN3CCOCC3)CCN2C(=O)c2cc(C(F)(F)F)cc(C(F)(F)F)c2)c2ccccc21 [Example 3],,8.40,,,
O=C(c1cc(C(F)(F)F)cc(C(F)(F)F)c1)N1CCN(Cc2n[nH]nc2CN2CCNCC2)C[C@H]1Cc1c[nH]c2ccccc12 [Example 2],8.40,9.10,,,
"Cl.Cl.O=C(c1cc(C(F)(F)F)cc(C(F)(F)F)c1)N1CCN(Cc2n[nH]nc2CN2CCOCC2)C[C@H]1Cc1c[nH]c2ccccc12 [(2R)-1-[3,5-bis(trifluoromethyl)benzoyl]-2-(1H-indol-3-ylmethyl)-4-{[5-(morpholinomethyl)-2H-1,2,3-triazol-4-yl]methyl}piperazine-dihydrochloride]",,,comparatively readily soluble in water,,
"O=C(c1cc(C(F)(F)F)cc(C(F)(F)F)c1)N1CCN(Cc2n[nH]nc2CN2CCOCC2)C[C@H]1Cc1c[nH]c2ccccc12 [Example 1, (2R)-1-[3,5-Bis(trifluoromethyl)benzoyl]-2-(1H-indol-3-ylmethyl)-4-{[5-(morpholinomethyl)-2H-1,2,3-triazol-4-yl]methyl}piperazine]",,9.00,,no significant vasodepression,did not exhibit any typical effects of CNS-permeable NK-1 antagonists

# More lines, main results first:
pKi (human NK-1 receptors),pEC50 (NK-1 receptors),solubility in water (Solubility in water),Compound,"vasodepression (action on basal blood pressure, calcium-antagonistic side-effect) (basal blood pressure)",typical effects of CNS-permeable NK-1 antagonists (gerbil foot tapping)
8.30,8.70,,CCN(CC)Cc1n[nH]nc1CN1CCN(C(=O)c2cc(C(F)(F)F)cc(C(F)(F)F)c2)[C@H](Cc2c[nH]c3ccccc23)C1 [Example 5],,
8.40,8.90,,CC(C)N(Cc1n[nH]nc1CN1CCN(C(=O)c2cc(C(F)(F)F)cc(C(F)(F)F)c2)[C@H](Cc2c[nH]c3ccccc23)C1)C(C)C [Example 6],,

# From patent publication US6407106B1, “N-triazolylmethyl-piperazine compounds with neurokinin-receptor antagonist activity” (Solvay Pharmaceuticals GmbH, priority 2000, dated 2002)
